The record followed here is US20250206722A1, “SMALL MOLECULE INHIBITORS OF TEA DOMAIN FAMILY MEMBERS” (The Scripps Research Institute, priority 2022, published 2025).

Common to all, as to format: cell-based
Experiment [1] concerns transcriptional activity of TEADs. Put plainly: TEAD reporter assay (MCF7 TEAD-LUC reporter cells). The note with it: Homo sapiens, 24 hours, BrightGlo luminescence. The procedure, abridged:
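Luminescence (BrightGlo) was read after 24 h of compound treatment at 37 °C, 5 % CO2. Cells had been seeded at 5,000 per well in DMEM with 10 % FBS and insulin and rested 24 h first. Dosing used 20 points, 1:2 dilution from 20 μM final, triplicates.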

In a further experiment the test system is IMR32 cells. Put plainly: IMR32 cytotoxicity assay. The note with it: Homo sapiens, IMR-32, 72 h, 3 days, Cell TiterGlo. As to the method: IMR32 cells were obtained from American Type Culture Collection (ATCC, CCL-127) and cultured in DMEM (Corning, 10-013-CV) supplemented with 10% fetal bovine serum (Gibco, 10438-026) and 1% penicillin-streptomycin (Gibco, 15070063). Cells were trypsinized, resuspended in growth medium, and diluted to a concentrated of 20,000 cells/mL. 1,000 cells, 50 μL of cell suspension, per well were then plated in a white 384-well plate (Corning) and incubated at 37° C., 5% CO2. After 24 hours incubation, 100 nL of test compounds in DMSO, 20-point 1:2 dilution starting from 20 μM (final concentration) in triplicate, were transferred to each well using an Agilent Bravo instrument outfitted with a pintool head. Cells were incubated at 37° C., 5% CO2 for 3 days followed by the addition of 30 μL of Cell TiterGlo (Promega; diluted 1:6 in water) to each well and luminescence values recorded using an EnVision plate reader. […]

Another experiment has as its system NCI-H226 cells. The experiment in a line: NCI-H226 proliferation assay (in house). The note with it: Homo sapiens, 120 h, 5 days, Cell TiterGlo, 20-point 1:2 dilution from 20 μM. An outline of the steps: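 Viability by CellTiter-Glo luminescence after 5-day compound exposure at 37 °C, 5% CO2. Compounds added 24 h post-seeding (500 cells/well, RPMI 1640 with 10% FBS) as 20-point, 2-fold series from 20 μM final, triplicate wells.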

Regarding `O=C(CCl)N1CCN(c2nccnc2Nc2ccc(C(F)(F)F)cc2)CC1` [Example 170, 2-chloro-1-(4-(3-((4-(trifluoromethyl)phenyl)amino)pyrazin-2-yl)piperazin-1-yl)ethan-1-one], the half-inhibitory concentration (IC50) in experiment [1] came to 267 nM; in the experiment with IMR32 cells, 760 nM; in the experiment on NCI-H226 cells, 0.173 µM.

As to `N#CCC(=O)N1CCN(c2nccnc2Nc2ccc(C(F)(F)F)cc2)CC1` [Example 171, 3-oxo-3-(4-(3-((4-(trifluoromethyl)phenyl)amino)pyrazin-2-yl)piperazin-1-yl)propanenitrile], the IC50 was 2220 nM in experiment [1], > 20000 nM in the experiment on IMR32 cells and 5.25 µM in the experiment on NCI-H226 cells.

As for `O=C(C1CO1)N1CCN(c2nccnc2Nc2ccc(C(F)(F)F)cc2)CC1` (stereo not drawn) [Example 172, oxiran-2-yl(4-(3-((4-(trifluoromethyl)phenyl)amino)pyrazin-2-yl)piperazin-1-yl)methanone], the IC50 in experiment [1] amounted to 3.2 nM; with IMR32 cells, 10000 nM; with NCI-H226 cells it was 1.4 µM.

In the case of `C#CC(=O)N1CCN(c2nccnc2Nc2ccc(C(F)(F)F)cc2)CC1` [Example 173, 1-(4-(3-((4-(trifluoromethyl)phenyl)amino)pyrazin-2-yl)piperazin-1-yl)prop-2-yn-1-one], the IC50 in experiment [1] was determined as 36.5 nM; in the experiment on IMR32 cells, 202 nM; in the experiment on NCI-H226 cells, 0.507 µM.

Regarding `CC#CC(=O)N1CCN(c2nccnc2Nc2ccc(C(F)(F)F)cc2)CC1` [Example 174, 1-(4-(3-((4-(trifluoromethyl)phenyl)amino)pyrazin-2-yl)piperazin-1-yl)but-2-yn-1-one], the IC50 is > 20000 nM in experiment [1], > 10000 nM in the experiment with IMR32 cells and > 20 µM in the experiment on NCI-H226 cells.

`N#CCN1CCN(c2nccnc2Nc2ccc(C(F)(F)F)cc2)CC1` [Example 175, 2-(4-(3-((4-(trifluoromethyl)phenyl)amino)pyrazin-2-yl)piperazin-1-yl)acetonitrile]: the results for the half-maximal inhibitory concentration (IC50) (in experiment [1]; in the experiment with IMR32 cells; in the experiment on NCI-H226 cells) were 833 nM, > 20000 nM and > 10 µM, respectively.

Turning to `CC(C)(C#N)N1CCN(c2nccnc2Nc2ccc(C(F)(F)F)cc2)CC1` [Example 176, 2-methyl-2-(4-(3-((4-(trifluoromethyl)phenyl)amino)pyrazin-2-yl)piperazin-1-yl)propanenitrile], the concentration for half-maximal inhibition (IC50) in experiment [1] is 2500 nM; in the experiment with IMR32 cells, > 10000 nM; with NCI-H226 cells, 9.95 µM.

With `C#CCN(C)C/C=C/C(=O)N1CCN(c2nccnc2Nc2ccc(C(F)(F)F)cc2)CC1` [Example 179, (E)-4-(methyl(prop-2-yn-1-yl)amino)-1-(4-(3-((4-(trifluoromethyl)phenyl)amino)pyrazin-2-yl)piperazin-1-yl)but-2-en-1-one], the concentration for half-maximal inhibition (IC50) in experiment [1] is > 10000 nM; with IMR32 cells, > 20000 nM; with NCI-H226 cells, 2.48 µM.

In the case of `C=C(CN1CCCC1)C(=O)N1CCN(c2nccnc2Nc2ccc(C(F)(F)F)cc2)CC1` [Example 189, 2-(pyrrolidin-1-ylmethyl)-1-(4-(3-((4-(trifluoromethyl)phenyl)amino)pyrazin-2-yl)piperazin-1-yl)prop-2-en-1-one], the IC50 in experiment [1] was found to be 2120 nM; with IMR32 cells, 9300 nM; with NCI-H226 cells, 5.36 µM.

Regarding `C=CC(=O)N(C)CCOc1nccnc1Nc1ccc(C(F)(F)F)cc1` [Example 191, N-methyl-N-(2-((3-((4-(trifluoromethyl)phenyl)amino)pyrazin-2-yl)oxy)ethyl)acrylamide], the results for the half-inhibitory concentration (IC50) (in experiment [1]; in the experiment with IMR32 cells; in the experiment on NCI-H226 cells) were 4.3 nM, 10000 nM and 0.047 µM, respectively.

`C=CC(=O)NCCOc1nccnc1Nc1ccc(C(F)(F)F)cc1` [Example 192, N-(2-((3-((4-(trifluoromethyl)phenyl)amino)pyrazin-2-yl)oxy)ethyl)acrylamide]: the IC50 in experiment [1] was 17.9 nM; in the experiment on IMR32 cells, > 20000 nM; in the experiment with NCI-H226 cells, 1.78 µM.
